Reference: the supplement of paper PMC10883282

Tests used:
Experiment in all cases: relative viability vs DMSO control (72 h) (fraction); higher = more viable cells
RD-ES = test system: RD-ES
Summary of the method: (§1)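 Sarcoma cell lines were plated in 384 wells to reach 80–90% confluence, treated after 24 h with 2.5 µl of serially diluted compound and held 72 h at 37 °C, 5% CO2. Relative viability was taken as percent growth from ATPLite readings, averaged over up to triplicate wells. The values were rescaled so that 1 marks full and 0 marks none.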

HT1080 = test system: HT1080
Summary of the method: as §1

RD = test system: RD
Summary of the method: as §1

VA-ES-BJ = test system: VA-ES-BJ
Summary of the method: as §1

KHOS-NP = test system: KHOS-NP
Summary of the method: as §1

CCCS(=O)(=O)N[C@H]1C[C@@H](N(C)c2ncnc3[nH]ccc23)C1 [Abrocitinib]
relative viability
Details | HT1080 | KHOS-NP | RD | RD-ES | VA-ES-BJ
0.00017 µM | 1.026 | 1.05 | 1.06 | 0.988 | 1.02
0.00051 µM | 1.02 | 1.04 | 1.12 | 0.998 | 1.02
0.00152 µM | 1.046 | 1.04 | 1.11 | 0.985 | 1
0.00457 µM | 1.022 | 1.05 | 1.09 | 0.993 | 1.03
0.01372 µM | 1.05 | 1.05 | 1.09 | 1.02 | 1.02
0.04115 µM | 1.05 | 1.04 | 1.11 | 1.03 | 1.05
0.1235 µM | 1.026 | 1.06 | 1.09 | 1.03 | 1.03
0.3704 µM | 1.04 | 1.04 | 1.08 | 1.015 | 1.05
1.111 µM | 1.021 | 1.05 | 1.15 | 1.03 | 1.06
3.333 µM | 1.03 | 1.04 | 1.1 | 1.03 | 1.03
10 µM | 1.05 | 1.039 | 1.09 | 1.03 | 1.01

COc1cc2c(Oc3ccc4[nH]c(C)cc4c3F)ccnc2cc1OCC1(N)CC1 [Anlotinib]
relative viability
Details | HT1080 | KHOS-NP | RD | RD-ES | VA-ES-BJ
0.00017 µM | 1.023 | 1.06 | 1.06 | 0.9225 | 0.975
0.00051 µM | 1.03 | 1.06 | 1.06 | 0.948 | 0.993
0.00152 µM | 1.04 | 1.06 | 1.08 | 0.969 | 0.987
0.00457 µM | 1.03 | 1.06 | 1.07 | 0.965 | 0.979
0.01372 µM | 1.05 | 1.07 | 1.06 | 0.98 | 0.977
0.04115 µM | 1.05 | 1.05 | 1.09 | 0.992 | 0.978
0.1235 µM | 1.07 | 1.04 | 1.07 | 0.977 | 0.997
0.3704 µM | 1.08 | 1.05 | 1.04 | 0.9545 | 1.022
1.111 µM | 1.1 | 1.04 | 0.946 | 0.925 | 0.983
3.333 µM | 1.02 | 0.735 | 0.594 | 0.594 | 0.62
10 µM | 0.0879 | 0.264 | 0.217 | 0.0858 | 0.505

CCN(CCCOc1ccc2c(Nc3cc(CC(=O)Nc4cccc(F)c4)[nH]n3)ncnc2c1)CCOP(=O)(O)O [Barasertib]
relative viability
Details | HT1080 | KHOS-NP | RD | RD-ES | VA-ES-BJ
0.00017 µM | 1.05 | 1.03 | 1.09 | 0.994 | 1.01
0.00051 µM | 1.04 | 1.03 | 1.09 | 0.974 | 1.01
0.00152 µM | 1.04 | 1.04 | 1.1 | 0.984 | 0.986
0.00457 µM | 1.04 | 1.048 | 1.06 | 0.951 | 0.998
0.01372 µM | 1.02 | 1.05 | 0.943 | 0.746 | 0.84
0.04115 µM | 0.977 | 1.072 | 0.888 | 0.156 | 0.634
0.1235 µM | 0.878 | 1.08 | 0.869 | 0.143 | 0.619
0.3704 µM | 0.89 | 1.09 | 0.84 | 0.14 | 0.647
1.111 µM | 0.9017 | 1.11 | 0.803 | 0.131 | 0.689
3.333 µM | 0.895 | 1.12 | 0.759 | 0.117 | 0.68
10 µM | 0.87 | 1.13 | 0.681 | 0.127 | 0.727

COc1cc(Nc2c(C#N)cnc3cc(OCCCN4CCN(C)CC4)c(OC)cc23)c(Cl)cc1Cl [Bosutinib]
relative viability
Details | HT1080 | KHOS-NP | RD | RD-ES | VA-ES-BJ
0.00017 µM | 1.14 | 1.08 | 1.11 | 0.965 | 1.11
0.00051 µM | 1.14 | 1.12 | 1.11 | 0.981 | 1.14
0.00152 µM | 1.09 | 1.13 | 1.12 | 0.987 | 1.12
0.00457 µM | 1.14 | 1.11 | 1.11 | 0.972 | 1.12
0.01372 µM | 1.11 | 1.117 | 1.11 | 0.98 | 1.14
0.04115 µM | 1.16 | 1.11 | 1.14 | 0.974 | 1.16
0.1235 µM | 1.14 | 1.1 | 1.15 | 0.941 | 1.14
0.3704 µM | 1.14 | 1.01 | 1.12 | 0.906 | 1.03
1.111 µM | 1.05 | 0.837 | 0.88 | 0.715 | 0.729
3.333 µM | 0.775 | 0.482 | 0.665 | 0.472 | 0.545
10 µM | 0.0548 | 0.264 | 0.0202 | 0.0125 | 0.0514

COc1cc2nccc(Oc3ccc(NC(=O)C4(C(=O)Nc5ccc(F)cc5)CC4)cc3)c2cc1OC [Cabozantinib]
relative viability
Details | HT1080 | KHOS-NP | RD | RD-ES | VA-ES-BJ
0.00017 µM | 1.06 | 1.07 | 1.073 | 0.916 | 1.07
0.00051 µM | 1.06 | 1.09 | 1.09 | 0.92 | 1.06
0.00152 µM | 1.07 | 1.1 | 1.09 | 0.953 | 1.04
0.00457 µM | 1.07 | 1.06 | 1.12 | 0.95 | 1
0.01372 µM | 1.05 | 1.09 | 1.11 | 0.938 | 1.04
0.04115 µM | 1.04 | 1.07 | 1.12 | 0.949 | 1.03
0.1235 µM | 1.06 | 1.08 | 1.13 | 0.958 | 0.9802
0.3704 µM | 1.06 | 1.07 | 1.11 | 0.895 | 0.971
1.111 µM | 1.07 | 1.04 | 1.13 | 0.857 | 0.91
3.333 µM | 0.962 | 0.924 | 0.864 | 0.616 | 0.68
10 µM | 0.482 | 0.586 | 0.501 | 0.252 | 0.266
